Consider one molecule from patent US20080175872A1, “Controlled Release Dosage Form Containing Lercanidipine and a Performance-enhancing Acid” (OSMOTICA CORP., priority 2006, published 2008).

Data set [1] in a line: Stability of lercanidipine HCl polymorph II alone or 1/1 with organic acid, impurities by HPLC. It counts as physicochemical. How it is done:
Analytical testing of the different samples was done by HPLC, column RP18, 300×3.9 mm ID, particle size 4 μm, in acetonitrile-0.15 M sodium perchlorate buffer, pH 3.0, at a flow rate of 1.3 ml/min, at 30° C., detector UV 240 nm. In all cases impurities were reported as % of the area of the impurity peak referred to the area of the main peak (a/a). The lercanidipine is the lercanidipine HCl polymorph II. […] The lercanidipine is the lercanidipine HCl polymorph II.

The conditions of data set [2]: oral administration of an immediate release form; cited from earlier work.
For data set [3] the following is noted: cited from earlier work.
The mark [4] stands for this setting: 50° C., 1.5 month, closed vials.

“And” between values parts separate entries of the source, which are not always exact repeats. Identical values can stand only once.

On to `COC(=O)C1=C(C)NC(C)=C(C(=O)OC(C)(C)CN(C)CCC(c2ccccc2)c2ccccc2)C1c1cccc([N+](=O)[O-])c1` (centres unmarked) [Lercanidipine, methyl 1,1,N-trimethyl-N-(3,3-diphenylpropyl)-2-aminoethyl 1,4-dihydro-2,6-dimethyl-4-(3-nitrophenyl)pyridine-3,5-dicarboxylate], for which, in data set [1] (5° C. (reference condition)), the “Impurity 3” value is 0.18 % a/a and 0.27 % a/a; the “Impurity B” value was 0.02 % a/a and 0.01 % a/a; the Maximum unknown impurities came to 0.04 % a/a. In data set [1] (50° C. + 75% RH), the “Impurity 3” value was 0.28 % a/a and 0.16 % a/a; the “Impurity B” value stood at 0.01 % a/a; the Maximum unknown impurities was 0.05 % a/a and 0.04 % a/a; the Total impurities is 0.43 % a/a and 0.34 % a/a. Also, in data set [1] (setting [4]), the “Impurity 3” value was 0.22 % a/a and 0.30 % a/a; the “Impurity B” value was determined as 0.01 % a/a; the Maximum unknown impurities was 0.03 % a/a and 0.04 % a/a; the Total impurities is 0.31 % a/a and 0.47 % a/a. Also, the “peak plasma level (Tmax)” value in data set [2] is 1 to 3 h. In addition, the “permeability classification as defined by the FDA” value in data set [3] is “low permeable drug”. In data set [3] (pH range of 1 to 8), the “solubility in gastrointestinal pH range” value was “essentially insoluble”.
